Earlier results, collected in patent US20120178771A1, “Oral Pharmaceutical Compositions of Buprenorphine and Method of Use” (priority 2008, published 2012).

What was measured:
[1] = human, in vivo
[2] = orally administered, versus placebo; pain assessed 0.5 to 6 hours

In the case of `CN1CC[C@]23c4c5ccc(O)c4O[C@H]2[C@@H](O)C=C[C@H]3[C@H]1C5` [morphine], the “dose range required to control pain in about 90% of subjects” value [1] is given as 8 fold.

For `CC(=O)Nc1ccc(O)cc1` [acetaminophen (paracetamol), acetaminophen], the “analgesia over the 6 hours, differences between the groups” value [2] is given as “no significant differences between the groups in analgesia”.

In the case of `COc1ccc2c3c1O[C@H]1C(=O)CC[C@@]4(O)[C@@H](C2)N(C)CC[C@]314` [oxycodone], the “dose range required to control pain in about 90% of subjects” value [1] is listed as 4 fold.
